Laboratory results reported in publication PMC11053681, “Gold(I) and Silver(I) Complexes Containing Hybrid Sulfonamide/Thiourea Ligands as Potential Leishmanicidal Agents” (Pharmaceutics, 2024).
Entries after “also recorded” stand apart in the source; their conditions may differ. Where two headings read alike, the source gives them in different places.

Tests used:
[1] = test system: Vero cells; test: Cytotoxicity assay on Vero cells (resazurin); assay type: cell-based, African green monkey; conditions: 24 h treatment
Procedure, shortened: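 Vero cells seeded at 5 × 10^5 cells/well, grown 24 h at 37 °C, 5% CO2 in RPMI with 10% FBS. Compounds tested in triplicate by serial dilution from 500 µM to 3.9 µM for 24 h. Viability read as resazurin fluorescence.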

[2] = target: LbOYE (Leishmania braziliensis, UniProt A4H6Z3); test: Suppression of intrinsic tryptophan fluorescence of LbOYE; assay type: binding; conditions: 25 °C
From the text: The recombinant LbOYE protein was produced using the methodology previously described. Briefly, the protein was expressed in strains of bacterial Escherichia coli BL21(DE3) through induction by IPTG using the pET28a:LbOYE vector. The enzyme was purified through a chromatography step of capture by nickel affinity, as the pET28a vector allows the expression of a polyhistidine fusion peptide, located at the N-terminal end of the protein. After affinity purification, the polyhistidine tail was excised by “overnight” incubation with thrombin, and the second purification step was performed using size exclusion chromatography. Purification was evaluated by SDS-PAGE and protein concentration was estimated by spectrophotometry.
The emission spectra of the intrinsic fluorescence of the tryptophan were recorded using a Shimadzu F-4500 spectrofluorometer in the range of 310–420 nm, with opening of slits of excitation and emission at 5.0 nm and λex = 295 nm. Interaction analyzes between LbOYE and ligands were performed at λmax = 333 nm.
The compounds were solubilized in DMSO and then we made successive dilutions in a Tris-HCl 25 mmol L^−1 buffer, pH 8.0, containing 100 mmol L^−1 of NaCl. For all experiments, the final concentration of DMSO was kept constant and equal to 2.5%. Solutions with increasing concentrations of ligand and constant concentration of LbOYE (1 µmol L^−1) were prepared, which were kept at 25 °C for a period of 1h before acquisition of fluorescence emission spectra.
The results were obtained from the fluorescence emission spectra of the intrinsic tryptophan probe in the presence of the compounds HL1^Ch, HL3^FPh, HL5^NO2Ph, [Au(HL1^Ch)2]Cl and [Ag(HL3^FPh)2]NO3. The bonding parameters were determined by the Hill plot, obtaining the dissociation constant (Kd) through the non-linear adjustment of the saturation curve to the experimental data. The double-log plot was used to determine the bonding constant and the number of bonding sites (n). It also allows the calculation of the bonding constant (Kb) and Kd from 1/Kb.
Equation (1)—Hill’s equation:(1) F0−F/F0=[L]/L+Kd
Equation (2)—Double-log:(2) logF0−F/F0=nlogKb−nlog1/L−(F0−F)[P0]/F
Equation (3)—Equation of Stern–Volmer:(3) F0/F=1+KSV[L]
The study of fluorescence quenching can be affected when the ligand has absorption bands that coincide with excitation and emission wavelengths of fluorescence. This interference is called the internal filter effect, which can be minimized using the procedure described by Equation (4). Fobs and Fcor are the fluorescence intensities at 333 nm measured and corrected, respectively; l represents the optical step where the absorption and emission of light occurs and C0 is the concentration of the ligand.
For the correction of the internal filter effect, were used the molar absorptivity coefficient values in the excitation (295 nm) and emission (333 nm) lengths, [λ/ε (L mol^−1 cm^−1)]; HL1^Ch (εex = 373 and εem = 117), HL3^FPh (εex = 1191 and εem = 57), HL5^NO2Ph (εex = 6162 and εem = 9124), Au1 (εex = 7045 and εem = 4008) and Ag3 (εex = 9431 and εem = 3281).

[3] = test system: RAW macrophages infected with Leishmania infantum; test: Infectivity test / infection rate in RAW macrophages; assay type: cell-based; conditions: three concentrations (below IC50, IC50, above IC50), 24 h treatment
Experimental: For the infection of RAW macrophages adhered to the plates, we used parasites in the promastigote form of Leishmania infantum, in the stationary phase, in a ratio of 10:1 (promastigotes/macrophages).
Macrophages were plated in the amount of 5 × 10^4 cells per well, in 96-well plates, which were kept in a CO2 oven at 37 °C for 24 h. The parasites were plated at a concentration of 10:1. The plates were kept in a CO2 oven for 12 h until the parasites infected the cells. […] Plates were fixed with paraformol for further evaluation. Plaques were evaluated by counting parasites within 200 cells under the EVOS Cell Imaging System (Thermo Scientific, Waltham, MA, USA) microscope by staining with propidium iodide.
In view of the data obtained, the six most promising compounds (HL1^Ch, HL2^Ph, Ag3, Ag4, Ag6 and Au2) were selected for carrying out the infection rate test against the L. infantum parasite. […] This test was performed at four stages. The first step determined the percentage of the amount in 200 infected macrophages per parasite, the second determined the percentage of parasites that infects 100 cells/macrophages, the third determined the average percentage of parasites that infects 200 cells/macrophages and, finally, the fourth step indicated the infection rate, that is, the result of the amount of Leishmania per macrophage (obtained from the third step) multiplied by the percentage of infected macrophages. Figure 5 presents the graphs of the infection rates, while the other graphs can be found in Figure S7.4.

Sequence of LbOYE (A4H6Z3 entry or part of it): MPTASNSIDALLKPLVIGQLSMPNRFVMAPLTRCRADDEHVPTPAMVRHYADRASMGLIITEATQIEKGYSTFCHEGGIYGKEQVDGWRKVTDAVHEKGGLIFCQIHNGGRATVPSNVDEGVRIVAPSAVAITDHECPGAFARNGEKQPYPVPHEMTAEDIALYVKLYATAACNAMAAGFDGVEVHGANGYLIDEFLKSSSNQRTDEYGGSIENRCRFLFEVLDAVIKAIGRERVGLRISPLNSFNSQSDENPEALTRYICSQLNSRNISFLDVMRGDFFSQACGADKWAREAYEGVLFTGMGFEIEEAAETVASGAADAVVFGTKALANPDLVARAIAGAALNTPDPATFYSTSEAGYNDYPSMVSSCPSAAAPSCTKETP

Kd ([2]; Hill plot (n = 1), Equation (1), Tris-HCl pH 8.0, 2.5% DMSO, read-out: Kd * (Hill plot)): 9.6 ± 0.7 µM
Ksv *** (Stern–Volmer constant) ([2]; Stern–Volmer, Equation (3)): 23 ± 2 × 10^4
Kd ([2]; double log, Equation (2), Kd = 1/Kb, read-out: Kd ** (double log) (converted)): 11.2 ± 0.3 µM
n ** (number of bonding sites) ([2]; double log, Equation (2)): 2.0 ± 0.1
Structure (SMILES): Cc1ccc(S(=O)(=O)NNC(Nc2ccc(F)cc2)=[S][Ag+][S]=C(NNS(=O)(=O)c2ccc(C)cc2)Nc2ccc(F)cc2)cc1.O=[N+]([O-])[O-] [Ag3, [Ag(HL3^FPh)2]NO3]
CC50 [1]: > 500 µM
Infection rate of L. infantum in macrophages, in words [3]: able to inhibit the parasite infection inside the cells even at lower concentrations than that determined by their IC50 values; also recorded: able to inhibit the parasite infection even at lower concentrations than that of their IC50 values
